Measurements published in US7910588B2, “5-HT7 receptor antagonists” (Eli Lilly and Company, priority 2007, dated 2011).
pKi: −log10 of the molar value. Where “and” joins values, the source holds several entries; their conditions need not be identical. Equal values may be shown once.

Legend:
5-HT6 = target: T1, 5-HT6 (Homo sapiens, UniProt P50406); assay: Radioligand binding assay, 5-HT6
T1 construct: expressed in transfected cells
Procedure: (§1) [^3H] […] The reactions are incubated at room temperature for 3 hr. and then counted in a Trilux Microbeta™ scintillation counter to detect receptor-bound radioligand. Binding data are analyzed by computer-assisted 4 parameter fit analysis (ID Business Solutions Ltd, Guildford, Surrey, UK). […]
(§2) Affinity for other serotonin receptor subtypes as well as for alpha 1 & 2 adrenergic receptors can readily be determined by modification of the above described radioligand receptor binding assay using membranes derived from cells stably expressing the desired receptor subtype including the 5-HT1A, 5-HT1B, and 5-HT1D subtypes, as well as the 5-HT2A, 5-HT2B, 5-HT2C, 5-HT4, 5-HT7, and 5-HT6 receptor subtypes. […]

5-HT5 = target: T2, 5-HT5 (Homo sapiens, UniProt P47898); assay: Radioligand binding assay, 5-HT5
T2 construct: expressed in transfected cells
T2 sequence (P47898 whole entry): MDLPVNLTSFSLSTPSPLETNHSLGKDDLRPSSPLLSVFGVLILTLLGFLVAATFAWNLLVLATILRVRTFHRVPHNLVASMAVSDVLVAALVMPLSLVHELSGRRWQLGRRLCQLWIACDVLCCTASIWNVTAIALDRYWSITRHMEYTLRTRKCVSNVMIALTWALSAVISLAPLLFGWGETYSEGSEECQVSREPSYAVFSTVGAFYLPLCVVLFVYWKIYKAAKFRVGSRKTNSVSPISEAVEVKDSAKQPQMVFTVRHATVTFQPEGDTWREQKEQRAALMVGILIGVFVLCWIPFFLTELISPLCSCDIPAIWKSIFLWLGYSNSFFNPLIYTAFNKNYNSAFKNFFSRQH
Procedure: as §1, §2

5-HT7 receptor = target: T3, 5-HT7 receptor (Homo sapiens, UniProt P34969); assay: 5-HT7 receptor affinity: [3H]5-HT radioligand binding assay; conditions: membranes of AV-12 cells, 1 nM [3H]5-HT
T3 construct: expressed in transfected cells
T3 sequence (P34969 whole entry): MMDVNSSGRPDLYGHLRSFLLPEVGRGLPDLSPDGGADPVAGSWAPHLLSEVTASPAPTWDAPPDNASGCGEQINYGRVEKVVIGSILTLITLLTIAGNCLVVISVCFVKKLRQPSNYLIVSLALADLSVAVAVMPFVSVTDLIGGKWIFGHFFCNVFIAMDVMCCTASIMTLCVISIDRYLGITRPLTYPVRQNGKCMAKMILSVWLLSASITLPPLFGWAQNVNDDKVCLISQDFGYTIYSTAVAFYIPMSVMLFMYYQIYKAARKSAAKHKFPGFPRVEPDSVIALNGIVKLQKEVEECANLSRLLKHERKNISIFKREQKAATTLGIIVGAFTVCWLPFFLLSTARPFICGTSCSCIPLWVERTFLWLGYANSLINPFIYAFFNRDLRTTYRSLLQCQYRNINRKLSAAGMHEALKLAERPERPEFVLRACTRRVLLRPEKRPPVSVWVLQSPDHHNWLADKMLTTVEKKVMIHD
Procedure: Membranes for affinity and antagonist activity assays are prepared essentially as follows. AV-12 cells, stably expressing the 5-HT7 receptor, are grown as a monolayer in 5×T-150 flasks in DMEM/F12 (3:1) 5% FBS, 20 mM HEPES, […] geneticin, 50 mg/mL tobramycin. After growing to 90% confluence the media is removed and replaced with Hybritech media containing 2% horse serum, […] dextran sulfate, 1 mg/mL nucellin, 1 mg/mL human transferrin (partially iron saturated), 50 mg/mL tobramycin, 20 mM HEPES, […] geneticin, 0.04% pluronic F68. […]
To prepare membranes, the above pellets are resuspended in ice-cold Tris buffer (20 mM Tris HCl, pH 7.4 at 23° C., 5 mM EDTA) and homogenized with a Wheaton tissue grinder. […] Protein concentrations are determined by the method of Bradford. […]

5-HT1B = target: T4, 5-HT1B (Homo sapiens, UniProt P28222); assay: Radioligand binding assay, 5-HT1B
T4 construct: expressed in transfected cells
T4 sequence (P28222 whole entry, species assumed): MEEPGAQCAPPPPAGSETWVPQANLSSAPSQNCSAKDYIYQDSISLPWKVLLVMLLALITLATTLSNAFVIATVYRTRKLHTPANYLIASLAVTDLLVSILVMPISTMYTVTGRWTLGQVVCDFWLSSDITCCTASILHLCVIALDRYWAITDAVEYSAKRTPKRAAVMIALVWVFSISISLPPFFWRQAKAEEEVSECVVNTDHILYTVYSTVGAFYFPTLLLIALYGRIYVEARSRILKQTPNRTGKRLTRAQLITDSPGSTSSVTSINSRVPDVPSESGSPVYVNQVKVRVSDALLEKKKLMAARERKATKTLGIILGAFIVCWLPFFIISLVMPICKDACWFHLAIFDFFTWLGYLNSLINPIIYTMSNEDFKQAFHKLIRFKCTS
Procedure: as §1, §2

alpha 1 adrenergic = assay: Radioligand binding assay, alpha 1 adrenergic
Procedure: as §1, §2

5-HT2A = target: T5, 5-HT2A (Homo sapiens, UniProt P28223); assay: Radioligand binding assay, 5-HT2A
T5 construct: expressed in transfected cells
T5 sequence (P28223 whole entry, species assumed): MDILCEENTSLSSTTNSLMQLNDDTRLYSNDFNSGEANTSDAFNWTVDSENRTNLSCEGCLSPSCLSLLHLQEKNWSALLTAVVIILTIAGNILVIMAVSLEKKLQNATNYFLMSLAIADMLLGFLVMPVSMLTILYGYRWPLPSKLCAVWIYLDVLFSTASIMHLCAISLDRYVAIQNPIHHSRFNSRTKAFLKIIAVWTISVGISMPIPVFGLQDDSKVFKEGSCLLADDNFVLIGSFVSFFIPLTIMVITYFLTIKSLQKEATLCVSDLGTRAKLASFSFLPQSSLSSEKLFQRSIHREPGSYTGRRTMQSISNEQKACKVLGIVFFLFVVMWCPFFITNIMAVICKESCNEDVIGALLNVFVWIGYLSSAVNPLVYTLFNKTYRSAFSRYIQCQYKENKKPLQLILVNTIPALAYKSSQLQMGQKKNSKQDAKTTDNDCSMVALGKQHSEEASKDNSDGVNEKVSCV
Procedure: as §1, §2

5-HT2B = target: T6, 5-HT2B (Homo sapiens, UniProt P41595); assay: Radioligand binding assay, 5-HT2B
T6 construct: expressed in transfected cells
T6 sequence (P41595 whole entry, species assumed): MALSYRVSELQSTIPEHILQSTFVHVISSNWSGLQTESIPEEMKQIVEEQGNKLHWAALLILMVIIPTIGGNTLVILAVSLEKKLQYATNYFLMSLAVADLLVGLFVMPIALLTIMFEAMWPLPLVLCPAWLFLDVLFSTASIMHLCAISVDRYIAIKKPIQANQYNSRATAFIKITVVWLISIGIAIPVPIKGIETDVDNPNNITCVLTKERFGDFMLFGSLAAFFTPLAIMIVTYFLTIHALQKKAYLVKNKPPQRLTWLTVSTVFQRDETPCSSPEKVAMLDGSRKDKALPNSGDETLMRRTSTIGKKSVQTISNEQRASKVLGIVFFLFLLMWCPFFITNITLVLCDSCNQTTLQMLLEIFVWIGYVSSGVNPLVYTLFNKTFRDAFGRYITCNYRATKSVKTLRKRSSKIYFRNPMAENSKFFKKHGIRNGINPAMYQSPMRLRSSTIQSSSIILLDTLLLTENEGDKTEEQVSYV
Procedure: as §1, §2

T1 sequence (P50406 whole entry, species assumed): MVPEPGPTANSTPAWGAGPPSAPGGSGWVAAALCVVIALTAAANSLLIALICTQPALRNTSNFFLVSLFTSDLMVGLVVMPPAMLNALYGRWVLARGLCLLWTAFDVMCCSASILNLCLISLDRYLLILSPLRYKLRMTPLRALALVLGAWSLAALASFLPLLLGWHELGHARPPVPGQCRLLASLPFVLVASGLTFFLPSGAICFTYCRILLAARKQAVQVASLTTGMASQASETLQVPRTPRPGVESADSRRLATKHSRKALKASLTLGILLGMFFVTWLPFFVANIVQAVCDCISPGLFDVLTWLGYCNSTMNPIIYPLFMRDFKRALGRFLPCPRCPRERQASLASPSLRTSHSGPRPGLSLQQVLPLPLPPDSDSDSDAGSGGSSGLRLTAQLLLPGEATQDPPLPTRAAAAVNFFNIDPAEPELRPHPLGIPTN

Q: `CCn1ncc(CN2CCN(c3cccnc3N3CCC(O)CC3)CC2)c1C.Cl` [Example 1, 3′-[4-(1-Ethyl-5-methyl-1H-pyrazol-4-ylmethyl)-piperazin-1-yl]-3,4,5,6-tetrahydro-2H-[1,2]bipyridinyl-4-ol hydrochloride] was tested. Which pKi (5-HT6) did it give?
A: < 5.23

Q: And the pKi (5-HT5)?
A: 5.34

Q: What about the pKi (5-HT7 receptor) of the same compound?
A: ~7.79 and 7.79

Q: And the pKi (5-HT1B)?
A: < 5.45

Q: What about the pKi (alpha 1 adrenergic) of the same compound?
A: 5.86

Q: And the pKi (5-HT2A)?
A: < 5.13

Q: And the pKi (5-HT2B)?
A: < 5.17
